Columns and labels:
breast cancer cell lines = details: background statement; read-out: IC50, growth of breast cancer cell lines; cited from earlier work
MCF-7 tumors = test: MCF-7 ER+ mammary tumor model; type: in vivo, mice
CYP3A4 [1] = target: T1, CYP3A4 (Homo sapiens, UniProt P08684); design: purchased Corning; host or cells: insect cells (microsomes); details: inhibiting EET biosynthesis; background statement; cited from earlier work
mm006 = test: Oxygen consumption rate (OCR), mm006; type: cell-based, mouse (C57BL/6)
Method: Measurement of oxygen consumption rate (OCR). Cells were maintained in growth medium consisting of 10% FBS at 37° C. with 5% CO2 and seeded at 25,000 cells per well in a 96-well XF96 cell culture microplates (Agilent, Santa Clara, CA). An 96 well XF sensor cartridge was hydrated and equilibrated with 200 ul calibrant in each well at 37° C. without CO2 overnight. Growth media was replaced with 150 μL DMEM based assay media (a non-buffered medium including 2 mM L-glutamine but no sodium bicarbonate (buffering agent), glucose, or sodium pyruvate, Agilent, Santa Clara, CA) the next day and cells were incubated CO2 free for 1 hour before the measurement of OCR by a Seahorse XFe Extracellular Flux Analyzer (Agilent, Santa Clara, CA), which measures uptake and excretion of metabolic end products in real time. After baseline measurements, 20 μl assay medium containing control vehicle or drugs were injected into corresponding wells. OCRs were measured periodically and can be reported in pmoles/minute or normalized against baseline measurements before treatment.

MCF-7 cells [2] = test: TMRE mitochondrial membrane potential in MCF-7 cells; type: cell-based, human; details: 10 μM, FIGS. 4A-4B
Method: FIG. 4A. Effect of HCB on mitochondrial cross membrane potential Δψ in MCF-7 cells. MCF-7 cells were seeded at 20,000 cells/well into a clear bottom black 96 well microplate. After treatments were added for 2 hours (FCCP control for 10 minutes), TMRE (tetramethylrhodamine, ethyl ester, Ex/Em 549/575) was added to a final concentration of 400 nM and incubation continued for additional 30 minutes. Media was removed and cells washed twice with PBS and 100 ul of PBS was added in the end. TMRE fluorescence was then measured with a plate reader. Results are reported as mean fluorescence intensity±S.D. (n=8, * indicates statistically significant difference from the DMSO control).
FIG. 4B. Effect of DCB and HCB on mitochondrial trans-membrane potential Δψ in MCF-7 cells. […] TMRE fluorescence was then measured with a plate reader. Results are reported as mean fluorescence intensity±S.D. (n=8, * indicates statistically significant difference from the DMSO control).
Mitochondrial cross membrane potential (Δψ) alteration in MCF-7 cells were measured by monitoring Δψ sensitive TMRE fluorescence intensity. […] TMRE fluorescence was then measured with a plate reader. Results are reported as mean fluorescence intensity±S.D. (n=8, * indicates statistically significant difference from the DMSO control).
TMRE Δψm measurement. […] Fluorescence was read at Ex 549 nm/Em 575 nm. […]

MCF-7 cells [3] = test: Mitochondrial swelling, JC-1 confocal imaging in MCF-7 cells; type: cell-based, human; details: 10 μM, FIG. 5
Method: FIG. 5. Mitochondrial swelling by HCB treatment in MCF-7 cells. MCF-7 cells were seeded at 30,000 cells/well into a chambered coverslip and treated with HCB or DMSO for 2 hours. JC-1 potential sensitive dye was added to a final concentration of 20 μM and incubation continued for an additional half an hour. Cell was then washed and imaged with a confocal microscope. Active mitochondria are stained yellow to orange. White arrows indicate swollen mitochondria.

CYP3A4 [4] = target: T1, CYP3A4; test: Midazolam hydroxylation by CYP3A4 in Nanodiscs; type: biochemical
Method: Titration of ˜6 uM CYP3A4 in POPC Nanodiscs was done using 16 mM stock solution obtained by 6-fold dilution of the original 100 mM DMSO solution in methanol. Aliquots of 0.1-0.2 μL were added to 120 μL solution of CYP3A4-ND in semi-micro cell (10 mm pathlength). Spectra with background corrected for scattering are shown in FIG. 17, and titration data points in FIG. 18.
These concentrations were selected based on IC50 for arachidonic acid metabolism mentioned in the first e-mail (low HCB concentration) and on our titration results. We used seven MDZ concentrations and measured both 1 OH and 4 OH hydroxy-MDZ products using HPLC with absorbance detection at 240 nm. Results are shown below in FIG. 19.

T1 sequence (P08684 whole entry): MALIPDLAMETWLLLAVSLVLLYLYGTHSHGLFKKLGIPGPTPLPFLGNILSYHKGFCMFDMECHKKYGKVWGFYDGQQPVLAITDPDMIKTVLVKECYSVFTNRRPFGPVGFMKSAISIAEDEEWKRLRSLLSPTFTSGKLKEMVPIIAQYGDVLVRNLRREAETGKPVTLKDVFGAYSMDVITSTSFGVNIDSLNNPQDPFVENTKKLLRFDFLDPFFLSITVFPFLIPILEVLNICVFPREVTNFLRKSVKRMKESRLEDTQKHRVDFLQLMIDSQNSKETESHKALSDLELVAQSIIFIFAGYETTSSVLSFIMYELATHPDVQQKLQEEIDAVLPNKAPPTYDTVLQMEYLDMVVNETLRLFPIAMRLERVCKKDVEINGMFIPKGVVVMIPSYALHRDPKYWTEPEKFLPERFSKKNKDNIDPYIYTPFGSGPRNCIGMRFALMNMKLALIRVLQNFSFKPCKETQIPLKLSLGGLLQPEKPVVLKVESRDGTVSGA

| SMILES | IC50 (breast cancer cell lines) [µM] | tumor control (MCF-7 tumors; subcutaneous route at the MTD, compared with other route) | oxidative phosphorylation in ER+/HER2− MCF-7 tumors (MCF-7 tumors; subcutaneous, MTD) | fold more potent than metformin (CYP3A4 [1]) [fold] | OCR Inhibition [HCB] (uM) v vs. control (P < 0.05) (mm006) [µM] | effect on mitochondrial membrane potential (MCF-7 cells [2]) | effect on mitochondrial tubule networks (MCF-7 cells [3]) | inhibition of MDZ hydroxylation (CYP3A4 [4]; 5.9 uM HCB, CYP3A4 Nanodiscs) | effect on the 1 OH/4 OH ratio of MDZ hydroxylation (CYP3A4 [4]; 64 uM HCB) |
| --- | --- | --- | --- | --- | --- | --- | --- | --- | --- |
| CCCCCCNC(=N)NC(=N)NCc1ccccc1 [HBB, N1-hexyl-N5-benzyl-biguanide] | 3 to 30 | equally effective | inhibit oxidative phosphorylation | 100 | – | – | – | – | – |
| CCCCCCNC(=N)NC(=N)NCC12C3C4C5C3C1C5C42 (stereo not drawn) [HCB, Hexyl Cubanomethyl Biguanide] | – | – | – | – | 20 | inhibited the mitochondrial membrane potential | caused loss of mitochondrial tubule networks | Significant inhibition | clear and reproducible effect |
